Experimental data published in US20150352114A1, “MITOTIC KINESIN Eg5 INHIBITING ANTICANCER AGENTS” (THE CLEVELAND CLINIC FOUNDATION, priority 2014, published 2015).

Experiments:
[1] = system: human brain microvascular endothelial cells; assay: Endothelial tube formation on Matrigel; format: cell-based; conditions: 200 nM; 6-hour time course
Experimental: Primary Human Brain Microvascular Endothelial Cells were purchased from Cell Systems (Kirkland, Wash.) and used at passages 3 through 6. Cells were maintained in EGM-2 MV media from Lonza (Walkersville, Md.) and stained with CellTracker™ Green CMFDA Dye from Invitrogen (Eugene, Oreg.) for fluorescent imaging. Tube formation assays were performed on Matrigel from Corning (Tewksbury, Mass.) in glass bottom 6-well plates from MatTek (Ashland, Mass.). Cells were plated at a density of 1.3×10^4 per cm^2 and imaged at the indicated times.

08-387 GSCs = assay: Cytoskeleton Phospho Antibody Array; format: cell-based, human; conditions: 200 nM; 7 hours
Experimental: 08-387 GSCs were enriched in G1 as described. Cells were then exposed to vehicle or ispinesib (200 nM) for 7 hours. Following treatment, cells were pelleted and snap frozen in liquid nitrogen before shipping to Full Moon Biosystems for processing to probe a Cytoskeleton Phospho Antibody Array containing 141 highly specific cytoskeleton related antibodies (Sunnyvale, Calif.).

GFP-positive tumor cells = assay: Brain slice culture time-lapse cell migration, PDGF-IRES-GFP retrovirus glioma model; format: cell-based, rat; conditions: 200 nM
Experimental: The PDGF-IRES-GFP retrovirus was produced according to well known methods previously described. P3 neonatal Sprague-Dawley rats were anesthetized using hypothermia. Briefly, each pup was carefully wrapped in several layers of gauze and then covered with ice. After 12 minutes, the rat pup's head was placed in a DKI 963 Stereotaxic Alignment Instrument (David Kopf Instruments, Tujunga, Calif.). The bregma was identified and using a sterile 18 gauge needle a small hole was poked into the skull that was 1 mm rostral and 2 mm to the right of the bregma. A 27-gauge Hamilton microsyringe (Reno, Nev.) was then inserted to a depth of 1.5 mm, and 2 ul of virus was injected at a rate of 0.2 ul/min.
At days P8, P9, and P10, PDGF-IRES-GFP injected rat pups were anesthetized with Ketamine/Xylazine cocktail and decapitated. Brains were isolated and 300-um coronal sections were taken in the vicinity of the injection site using a McIlwain tissue chopper. The slices were transferred onto a porous 0.4-um culture plate insert (Millipore, Billerica, Mass.) and then placed into Glass Bottom 6 well plates (P06G-0-20-F, MatTek Corp, Ashland, Mass.) containing slice culture media (MEM, 2 mM L-glutamine, […], 10% Glucose, Its (Sigma, 12521) and Anti-Anti (Gibco, 15240-062)). Microglial and perivascular cells of the brain sections were stained with Isolectin GS-IB4, Alexa fluor 594 conjugate (Invitrogen) for 30 minutes at 37° C., washed three times with PBS and returned to a humidified atmosphere at 5% (CO2). Images of the brain slices for time-lapse microscopy were acquired with a Perkin Elmer UltraView Spinning Disk microscope on a Leica DMI 6000 with a 10× Plan Apo 0.4 NA objective lens. During imaging, the brain slices were placed in a stage mounted 37° C. incubator where 60% humidity and 5% CO2 was maintained. The emission range for 488 and 561 is […] and 580-650, respectively and acquisition and analysis were performed using Velocity software. The migratory path of the individual cells was then tracked every 7 minutes by marking the position of the cell body at consecutive time points.
Fluorescence, time-lapse image stacks consisting of ˜150 frames (7 minute intervals) were imported into Image-Pro Plus (v7.0, Media Cybernetics, Silver Spring, Md.). Gliomal cell tracking for each treatment group (55 cells/group) was performed in a semi-automated fashion using a combination of Fourier correlation and user-guided input. Cells selected for tracking were chosen randomly from the periphery of the tumor mass in each image stack. X and Y coordinates from each cell track were exported to Excel and translated such that each cell's track originated from a common origin (0,0). […] Mean-squared displacement for tracked cells in each group was analyzed using a persistent random-walk model (1,2). Speed (um/s) and persistence (min) were extracted using a non-linear least-squared regression to the model equation for each track and averaged for each treatment group.

matched GSCs and NSTCs = assay: SubG1 (apoptotic) population by flow cytometry for propidium iodide; format: cell-based, human; conditions: 3 nM; four days; three xenograft patient specimens
Experimental: The half maximal effective concentration of ispinesib for acutely dissociated and MACS sorted matched GSCs and NSTCs was determined by plating, in triplicate, 1,000 cells per well of a 96 well plate pre-coated with GelTrex in growth-factor free Neuralbasal media. The next day, cells were exposed to 2-fold increasing concentrations of ispinesib spanning from 0 to 32 nM. Viability was measured at 72 hours using CellTiter-Glo ATP-based assay (Promega, Madison, Wis.) read on a luminometer (Perkin-Elmer, Waltham, Mass.). For long-term viability assays, 500 cells per well were plated in triplicate into 96-well plates as above. The next day, cells were exposed to 3 nM ispinesib or vehicle (DMSO) and viability was measured daily for 5 days using CellTiter-Glo. Day 0 reading were taken immediately after addition of drug or vehicle. SubG1 for GSCs and NSTCs was determined by flow cytometry for propidium iodide and gated as the events below the 2N G1 peak of the resulting histogram. Analysis was done following treatment of 100,000 cells with vehicle or 3 nM ispinesib. Cells were fixed at Day 0 through Day 4 in 100% cold ethanol and simultaneously processed for flow analysis with 20,000 events analyzed per condition.

GSCs = assay: Limiting dilution assay and sphere formation (self-renewal); format: cell-based, human; conditions: pretreatment 18 hours with 3 nM; scored ten days later
Experimental: GSCs were isolated from subcutaneous flank xenografts of patient-derived specimens by magnetic sorting as described above and allowed to recover overnight. The next day cells were exposed to vehicle or 3 nM ispinesib for 18 hours. Cells were then washed and triturated into a single cell suspension. Cell sorting was performed using a FACS Aria II Cell Sorter (BD Biosciences, Franklin Lakes, N.J., USA) to plate the cells into 96 well plates at a final cell number per well of 1 (38 wells/plate), 5 (24 wells/plate), 10, 20, or 50 (all at 12 wells/plate). Tumorsphere formation was evaluated 10 days after sorting and wells were scored positive or negative for the presence of at least one tumorsphere. The estimated stem cell frequency was calculated using extreme limiting dilution analysis. Only live cells were selected for using Live/Dead dye blue (Life Technologies).

[2] = Persistent Random Walk model fit

## Cc1ccc(C(=O)N(CCCN)[C@@H](c2nc3cc(Cl)ccc3c(=O)n2Cc2ccccc2)C(C)C)cc1 [ispinesib, N-(3-amino-propyl)-n-[R-1-(3-benzyl-7-choloro-4-oxo-3,4-dihydroquinazolin-2-yl)-2-methyl-propyl]-4-methyl-benzamide methanesulfonate]
[1]
  endothelial tube formation: failed to properly organize into tubes
08-387 GSCs
  phosphorylation of 141 cytoskeleton proteins: no significant changes in phosphorylation
GFP-positive tumor cells
  tumor dispersion (Wind Rose plots, MSD): clear reduction in tumor dispersion
GFP-positive tumor cells; versus control
  reduction in mean squared displacement: approximately four-fold
  reduction of cell velocity: approximately two-fold
GFP-positive tumor cells; [2]
  cell velocity: 11.3±0.2 μm/hr
  persistence time: 2.3 ± 0.1 h
Matched GSCs and NSTCs
  subG1 population (surrogate marker for apoptosis): higher subG1 fraction over NSTCs
GSCs
  stem cell frequency (tumorsphere formation): significantly compromised
